From patent US4065460A, “4,5,6,7-Tetrahydro-thieno[3,2-c]-pyridine derivatives and process for their preparation” (Parcor, priority 1975, dated 1977)

Tested on: mechanical stimulation (pressure forceps at the base of the tail)
Experiment: Antalgic action, mechanical stimulation method according to Haffner
Format: in vivo
Conditions: 0.5 h; mouse, 100 mg/kg oral, after 30 min.; read-out: mean percent antalgia after 30 min.
Method: This method comprises placing a pressure forceps at the base of the tail of a mouse and recording the number of bites self-inflicted by the animal in its endeavour to remove the forceps. The decrease of the number of bites prior to and subsequently to oral administration of the test compound at a dosage of 100 mg/kg provides a measure of the antalgic activity of the derivatives of this invention.
Compound COC1c2sccc2CNC1C (centres unmarked) [Derivative 7, 7-Methoxy-6-methyl-4,5,6,7-tetrahydro-thieno[3,2-c]-pyridine] has an inhibition in vivo at 100 mg/kg of 70%. COC1(C)c2sccc2CNC1C (centres unmarked) [Derivative 9, 6,7-Dimethyl-7-methoxy-4,5,6,7-tetrahydro-thieno[3,2-c]-pyridine] showed an inhibition in vivo at 100 mg/kg of 68%. In the case of CCOC1c2sccc2CNC1C (centres unmarked) [Derivative 8, 7-Ethoxy-6-methyl-4,5,6,7-tetrahydro-thieno[3,2-c]-pyridine], the inhibition in vivo at 100 mg/kg is reported as 71%. With c1ccc(COC2CNCc3ccsc32)cc1 (centres unmarked) [Derivative 4, 7-Benzyloxy-4,5,6,7-tetrahydro-thieno[3,2-c]-pyridine] the inhibition in vivo at 100 mg/kg was 75%. CCOC1(C)CNCc2ccsc21 (centres unmarked) [Derivative 6, 7-Ethoxy-7-methyl-4,5,6,7-tetrahydro-thieno[3,2-c]-pyridine] gave an inhibition in vivo at 100 mg/kg of 66%.

Same assay, conditions: mouse, 100 mg/kg oral, after 1 hr; read-out: mean percent antalgia after 1 hr
With COC1c2sccc2CNC1C (centres unmarked) [Derivative 7, 7-Methoxy-6-methyl-4,5,6,7-tetrahydro-thieno[3,2-c]-pyridine] the inhibition in vivo at 100 mg/kg was 65%. COC1(C)c2sccc2CNC1C (centres unmarked) [Derivative 9, 6,7-Dimethyl-7-methoxy-4,5,6,7-tetrahydro-thieno[3,2-c]-pyridine] gave an inhibition in vivo at 100 mg/kg of 63%. CCOC1c2sccc2CNC1C (centres unmarked) [Derivative 8, 7-Ethoxy-6-methyl-4,5,6,7-tetrahydro-thieno[3,2-c]-pyridine] gave an inhibition in vivo at 100 mg/kg of 65%. With c1ccc(COC2CNCc3ccsc32)cc1 (centres unmarked) [Derivative 4, 7-Benzyloxy-4,5,6,7-tetrahydro-thieno[3,2-c]-pyridine] the inhibition in vivo at 100 mg/kg was 69%. With CCOC1(C)CNCc2ccsc21 (centres unmarked) [Derivative 6, 7-Ethoxy-7-methyl-4,5,6,7-tetrahydro-thieno[3,2-c]-pyridine] the inhibition in vivo at 100 mg/kg was 60%.

Same assay, conditions: mouse, 100 mg/kg oral, after 2 hrs; read-out: mean percent antalgia after 2 hrs
For COC1c2sccc2CNC1C (centres unmarked) [Derivative 7, 7-Methoxy-6-methyl-4,5,6,7-tetrahydro-thieno[3,2-c]-pyridine], the inhibition in vivo at 100 mg/kg was 61%. With COC1(C)c2sccc2CNC1C (centres unmarked) [Derivative 9, 6,7-Dimethyl-7-methoxy-4,5,6,7-tetrahydro-thieno[3,2-c]-pyridine] the inhibition in vivo at 100 mg/kg was 56%. In the case of CCOC1c2sccc2CNC1C (centres unmarked) [Derivative 8, 7-Ethoxy-6-methyl-4,5,6,7-tetrahydro-thieno[3,2-c]-pyridine], the inhibition in vivo at 100 mg/kg is reported as 59%. With c1ccc(COC2CNCc3ccsc32)cc1 (centres unmarked) [Derivative 4, 7-Benzyloxy-4,5,6,7-tetrahydro-thieno[3,2-c]-pyridine] the inhibition in vivo at 100 mg/kg was 66%. CCOC1(C)CNCc2ccsc21 (centres unmarked) [Derivative 6, 7-Ethoxy-7-methyl-4,5,6,7-tetrahydro-thieno[3,2-c]-pyridine] showed an inhibition in vivo at 100 mg/kg of 55%.

Same assay, conditions: mouse, 100 mg/kg oral, after 3 hrs; read-out: mean percent antalgia after 3 hrs
COC1c2sccc2CNC1C (centres unmarked) [Derivative 7, 7-Methoxy-6-methyl-4,5,6,7-tetrahydro-thieno[3,2-c]-pyridine] showed an inhibition in vivo at 100 mg/kg of 53%. With COC1(C)c2sccc2CNC1C (centres unmarked) [Derivative 9, 6,7-Dimethyl-7-methoxy-4,5,6,7-tetrahydro-thieno[3,2-c]-pyridine] the inhibition in vivo at 100 mg/kg was 49%. CCOC1c2sccc2CNC1C (centres unmarked) [Derivative 8, 7-Ethoxy-6-methyl-4,5,6,7-tetrahydro-thieno[3,2-c]-pyridine] gave an inhibition in vivo at 100 mg/kg of 50%. Work on c1ccc(COC2CNCc3ccsc32)cc1 (centres unmarked) [Derivative 4, 7-Benzyloxy-4,5,6,7-tetrahydro-thieno[3,2-c]-pyridine] yielded an inhibition in vivo at 100 mg/kg of 57%. In the case of CCOC1(C)CNCc2ccsc21 (centres unmarked) [Derivative 6, 7-Ethoxy-7-methyl-4,5,6,7-tetrahydro-thieno[3,2-c]-pyridine], the inhibition in vivo at 100 mg/kg is reported as 48%.

Tested on: carrageenin-induced edema
Experiment: Localized carrageenin-induced edema method (anti-inflammatory action)
Format: in vivo
Conditions: Rattus norvegicus, po; rats, 100 mg/kg orally (1 hour prior, simultaneously, 1 hour and 2.5 hours after), after 1 hour; read-out: Percent anti-inflammatory activity after 1 hour
Method: a. Localized carrageenin-induced edema method.
0.1 ml of a 1% carrageenin solution is injected at time 0 in the metatarsal flexor muscles of the right hind limb of rats. The animals of the treated group are administered orally, additionally, 100 mg/kg of the test derivative, respectively 1 hour prior to and then simultaneously with the phlogogenic agent, and then 1 hour and 2.5 hours thereafter. The determinations effected with a ROCH micrometer at times 0, 1 hour, 2 hrs, 3 hrs and 5 hrs after carrageenin administration make it possible to determine, as a function of time, the percent anti-inflammatory activity.
Compound COC1c2sccc2CNC1C (centres unmarked) [Derivative 7, 7-Methoxy-6-methyl-4,5,6,7-tetrahydro-thieno[3,2-c]-pyridine] has an inhibition in vivo at 100 mg/kg of 36%. COC1(C)c2sccc2CNC1C (centres unmarked) [Derivative 9, 6,7-Dimethyl-7-methoxy-4,5,6,7-tetrahydro-thieno[3,2-c]-pyridine] gave an inhibition in vivo at 100 mg/kg of 44%. With CCOC1c2sccc2CNC1C (centres unmarked) [Derivative 8, 7-Ethoxy-6-methyl-4,5,6,7-tetrahydro-thieno[3,2-c]-pyridine] the inhibition in vivo at 100 mg/kg was 38%. For c1ccc(COC2CNCc3ccsc32)cc1 (centres unmarked) [Derivative 4, 7-Benzyloxy-4,5,6,7-tetrahydro-thieno[3,2-c]-pyridine], the inhibition in vivo at 100 mg/kg was 42%. Compound CCOC1(C)CNCc2ccsc21 (centres unmarked) [Derivative 6, 7-Ethoxy-7-methyl-4,5,6,7-tetrahydro-thieno[3,2-c]-pyridine] has an inhibition in vivo at 100 mg/kg of 40%.

Same assay, conditions: Rattus norvegicus, po; rats, 100 mg/kg orally (1 hour prior, simultaneously, 1 hour and 2.5 hours after), after 2 hours; read-out: Percent anti-inflammatory activity after 2 hours
Work on COC1c2sccc2CNC1C (centres unmarked) [Derivative 7, 7-Methoxy-6-methyl-4,5,6,7-tetrahydro-thieno[3,2-c]-pyridine] yielded an inhibition in vivo at 100 mg/kg of 48%. COC1(C)c2sccc2CNC1C (centres unmarked) [Derivative 9, 6,7-Dimethyl-7-methoxy-4,5,6,7-tetrahydro-thieno[3,2-c]-pyridine] gave an inhibition in vivo at 100 mg/kg of 52%. CCOC1c2sccc2CNC1C (centres unmarked) [Derivative 8, 7-Ethoxy-6-methyl-4,5,6,7-tetrahydro-thieno[3,2-c]-pyridine] showed an inhibition in vivo at 100 mg/kg of 53%. c1ccc(COC2CNCc3ccsc32)cc1 (centres unmarked) [Derivative 4, 7-Benzyloxy-4,5,6,7-tetrahydro-thieno[3,2-c]-pyridine] gave an inhibition in vivo at 100 mg/kg of 50%. CCOC1(C)CNCc2ccsc21 (centres unmarked) [Derivative 6, 7-Ethoxy-7-methyl-4,5,6,7-tetrahydro-thieno[3,2-c]-pyridine] showed an inhibition in vivo at 100 mg/kg of 49%.

Same assay, conditions: Rattus norvegicus, po; rats, 100 mg/kg orally (1 hour prior, simultaneously, 1 hour and 2.5 hours after), after 5 hours; read-out: Percent anti-inflammatory activity after 5 hours
In the case of COC1c2sccc2CNC1C (centres unmarked) [Derivative 7, 7-Methoxy-6-methyl-4,5,6,7-tetrahydro-thieno[3,2-c]-pyridine], the inhibition in vivo at 100 mg/kg is reported as 62%. Compound COC1(C)c2sccc2CNC1C (centres unmarked) [Derivative 9, 6,7-Dimethyl-7-methoxy-4,5,6,7-tetrahydro-thieno[3,2-c]-pyridine] has an inhibition in vivo at 100 mg/kg of 62%. Work on CCOC1c2sccc2CNC1C (centres unmarked) [Derivative 8, 7-Ethoxy-6-methyl-4,5,6,7-tetrahydro-thieno[3,2-c]-pyridine] yielded an inhibition in vivo at 100 mg/kg of 61%. With c1ccc(COC2CNCc3ccsc32)cc1 (centres unmarked) [Derivative 4, 7-Benzyloxy-4,5,6,7-tetrahydro-thieno[3,2-c]-pyridine] the inhibition in vivo at 100 mg/kg was 60%. Compound CCOC1(C)CNCc2ccsc21 (centres unmarked) [Derivative 6, 7-Ethoxy-7-methyl-4,5,6,7-tetrahydro-thieno[3,2-c]-pyridine] has an inhibition in vivo at 100 mg/kg of 61%.

Tested on: not listed separately
Experiment: Acute intravenous toxicity (LD50, method according to MILLER and TAINTER)
Conditions: mouse, in vivo, Swiss mice, read-out: LD50 /24hrs/kg of the animal
In the case of COC1c2sccc2CNC1C (centres unmarked) [Derivative 7, 7-Methoxy-6-methyl-4,5,6,7-tetrahydro-thieno[3,2-c]-pyridine], the LD50 at 24 h is reported as 210 mg/kg. COC1(C)c2sccc2CNC1C (centres unmarked) [Derivative 9, 6,7-Dimethyl-7-methoxy-4,5,6,7-tetrahydro-thieno[3,2-c]-pyridine] gave an LD50 at 24 h of 175 mg/kg. Work on CCOC1c2sccc2CNC1C (centres unmarked) [Derivative 8, 7-Ethoxy-6-methyl-4,5,6,7-tetrahydro-thieno[3,2-c]-pyridine] yielded an LD50 at 24 h of 129 mg/kg. Compound c1ccc(COC2CNCc3ccsc32)cc1 (centres unmarked) [Derivative 4, 7-Benzyloxy-4,5,6,7-tetrahydro-thieno[3,2-c]-pyridine] has an LD50 at 24 h of 95 mg/kg. CCOC1(C)CNCc2ccsc21 (centres unmarked) [Derivative 6, 7-Ethoxy-7-methyl-4,5,6,7-tetrahydro-thieno[3,2-c]-pyridine] showed an LD50 at 24 h of 224 mg/kg.

Tested on: Ovalbumin-induced systemic edema
Experiment: Ovalbumin-induced systemic edema method (anti-inflammatory action)
Format: in vivo
Conditions: Rattus norvegicus, po; rats, 100 mg/kg orally (1 hour prior and simultaneously), with respect to control group, after 2 hrs; read-out: Percent decrease of the edema reaction after 2 hrs
Method: b. Ovalbumin-induced systemic edema method
Rats are administered a simultaneous intraperitoneal injection of 1 ml ovalbumin and 0.5 ml of a 1% Evans Blue solution. The animals of the treated group are additionally administered orally 100 mg/kg of the test derivative, one hour prior to ovalbumin administration and then simultaneously with said ovalbumin administration. The intensity of the phenomenon thus induced is rated according to a scale from 1 to 5, according to the progress of the inflammatory syndrome. The measurements are effected after 2 hours and after 3 hours. Thus are determined the mean intensity of the edema and the percent decrease of the edema reaction with respect to the control group.
With COC1c2sccc2CNC1C (centres unmarked) [Derivative 7, 7-Methoxy-6-methyl-4,5,6,7-tetrahydro-thieno[3,2-c]-pyridine] the inhibition in vivo at 100 mg/kg was 47%. COC1(C)c2sccc2CNC1C (centres unmarked) [Derivative 9, 6,7-Dimethyl-7-methoxy-4,5,6,7-tetrahydro-thieno[3,2-c]-pyridine] showed an inhibition in vivo at 100 mg/kg of 50%. Work on CCOC1c2sccc2CNC1C (centres unmarked) [Derivative 8, 7-Ethoxy-6-methyl-4,5,6,7-tetrahydro-thieno[3,2-c]-pyridine] yielded an inhibition in vivo at 100 mg/kg of 44%. c1ccc(COC2CNCc3ccsc32)cc1 (centres unmarked) [Derivative 4, 7-Benzyloxy-4,5,6,7-tetrahydro-thieno[3,2-c]-pyridine] showed an inhibition in vivo at 100 mg/kg of 53%. Work on CCOC1(C)CNCc2ccsc21 (centres unmarked) [Derivative 6, 7-Ethoxy-7-methyl-4,5,6,7-tetrahydro-thieno[3,2-c]-pyridine] yielded an inhibition in vivo at 100 mg/kg of 44%.

Same assay, conditions: Rattus norvegicus, po; rats, 100 mg/kg orally (1 hour prior and simultaneously), with respect to control group, after 3 hrs; read-out: Percent decrease of the edema reaction after 3 hrs
Compound COC1c2sccc2CNC1C (centres unmarked) [Derivative 7, 7-Methoxy-6-methyl-4,5,6,7-tetrahydro-thieno[3,2-c]-pyridine] has an inhibition in vivo at 100 mg/kg of 58%. With COC1(C)c2sccc2CNC1C (centres unmarked) [Derivative 9, 6,7-Dimethyl-7-methoxy-4,5,6,7-tetrahydro-thieno[3,2-c]-pyridine] the inhibition in vivo at 100 mg/kg was 63%. Compound CCOC1c2sccc2CNC1C (centres unmarked) [Derivative 8, 7-Ethoxy-6-methyl-4,5,6,7-tetrahydro-thieno[3,2-c]-pyridine] has an inhibition in vivo at 100 mg/kg of 56%. With c1ccc(COC2CNCc3ccsc32)cc1 (centres unmarked) [Derivative 4, 7-Benzyloxy-4,5,6,7-tetrahydro-thieno[3,2-c]-pyridine] the inhibition in vivo at 100 mg/kg was 64%. Work on CCOC1(C)CNCc2ccsc21 (centres unmarked) [Derivative 6, 7-Ethoxy-7-methyl-4,5,6,7-tetrahydro-thieno[3,2-c]-pyridine] yielded an inhibition in vivo at 100 mg/kg of 58%.
